Measurements from paper PMC10259451 (Journal of Medicinal Chemistry, 2023).
Values after ≈ are worked out from the molar mass of the structure shown.

Legend:
[1] = Kinetic aqueous solubility; type: physicochemical; conditions: pH 7.4, Sol. (aqueous solubility)
[2] = tested on: L. mexicana intracellular amastigotes; type: cell-based, Leishmania mexicana
[3] = tested on: L. mexicana; conditions: administered orally; cited from earlier work
[4] = tested on: L. mexicana; assay: Murine model of cutaneous leishmaniasis, footpad lesion size; type: in vivo, BALB/c mice; conditions: PO 50mg/kg/day for 10 days; p < 0.0001, Mann–Whitney

SMILES: O=C(Nc1cccc(-c2ncco2)c1)c1cc([N+](=O)[O-])c(F)cc1F [compound 71]
- solubility [1]: ~9 µM (≈ 3.11 µg/mL)

SMILES: Cc1ccc(-c2nc3ccccc3s2)cc1NC(=O)c1ccc(F)c([N+](=O)[O-])c1 [compound 10]
- antileishmanial activity in words ([2]; L. mexicana amastigotes): active

SMILES: Cc1ccc(-c2nc3ccccc3s2)cc1NC(=O)c1cc([N+](=O)[O-])c(N2CCN(C)CC2)cc1Cl [compound 4]
- efficacy in murine model of cutaneous leishmaniasis [3]: less efficacious than the positive control, miltefosine

SMILES: O=C(Nc1ccc(Cl)c(Cl)c1)c1ccc(N2CCNCC2)c([N+](=O)[O-])c1 [compound 79]
- lesion size vs vehicle [4]: significantly smaller lesions at weeks 4 and 5
- EC50 ([2]; Leishmania mexicana, J774.A1, read-out: L. mexicana EC50, intracellular amastigotes in J774A.1 macrophages, mean ± SD, at least three experiments): 660 nM
